Source: patent publication US20240197634A1, “PHARMACEUTICAL COMPOSITION FOR PREVENTING OR TREATING VIRUS INFECTIONS, COMPRISING POLYMER NANODISCS” (priority 2021, published 2024)

Test system: influenza virus
Type: cell-based

Substance: Heparin
- viral activity after 1/100 dilution (virucidal activity): recovery in viral activity
